Source: US20010044151A1, “Ligands for modulating the expression of exogenous genes via an ecdysone receptor complex” (priority 1998, published 2001)

What follows are compounds tested against CfEcR(CDEF)-GST and CfUSP-GST fusion proteins (assay: Competitive 3H-ponasterone A binding assay, bacterial GST fusion proteins). Conditions: bacterial CfEcR(CDEF)-GST/CfUSP-GST extracts, 3H-ponasterone A displacement.
Parameters: species or system Choristoneura fumiferana
Text: Bacterial glutathion-S-transferase (GST) fusion proteins of the spruce budworm (Choristoneura fumiferana) EcR (CfEcR), containing CDEF domains only, and ultraspiracle protein (CfUSP) were also used in radioligand displacement assays. cDNA encoding the CDEF domains of CfEcR were constructed following PCR amplification using primers that contain BamH1 and EcoRI sites (Perera S C, M Sundaram, Krell P J, Retnakaran A, Dhadialla T S, S R Palli, 1999 Arch. Insect Biochem. Physiol. 41 In Press). The PCR produce was digested with BamHI and EcoRI and cloned into pGEX-3X vector obtained from Pharmacia Biotech. CfUSP coding region was amplified using primers that contain BamH1 and EcoRI sites and cloned into to pGEX-2T vector obtained from Pharmacia Biotech. E. coli transformed with each of the two vectors were grown and induced to produce the fusion proteins as detailed in the Pharmacia Biotech GST-technical bulletin.
(§1) The concentrations of competitors that inhibited 50% of tritiated ponasterone A binding (IC50) was determined by incubating Kc or Plodia nuclear extracts or extracts of bacteria producing CfEcR(CDEF)-GST and CfUSP-GST fusions proteins with ^3H-ponasterone A (66,000 dpm per reaction) in the presence of a range of concentrations (0.1 nM to 10 μM) of test compounds. In the case of binding reactions using bacterial fusion proteins, 20 or one μl extract of bacteria producing CfEcR(CDEF)-GST or CfUSP-GST fusion proteins, respectively, were included per binding reaction. The assay conditions and determination of total and non-specific binding was as described above. The volume of competitor in solvent, like that for 20E or solvent alone, was kept at 1% of total reaction volume by using a 100 fold concentrated stock solution (i.e. a 100 fold dilution of stock solutions). The remainder of the assay was as described above. Each reaction was carried out in duplicate per concentration per test compound. […]

Row | SMILES | Bacterial CfECR log(1/IC50)
1 | Cc1cc(CO)cc(C(=O)N(NC(=O)c2cccc(O)c2C)C(C)(C)C)c1 [Ligand 15] | 8.49
2 | Cc1cc(C)cc(C(=O)N(NC(=O)c2cccc(O)c2C)C(C)(C)C)c1 [Ligand 14] | 8.61

Each compound was assayed against T1, ecdysteroid receptor complex in Plodia interpunctella (IAL-PID2) nuclear extract (Plodia interpunctella, UniProt Q6RVD3) (assay: Competitive 3H-ponasterone A binding assay, Plodia nuclear ecdysone receptor extract). Conditions: 3H-ponasterone A displacement.
T1 sequence (Q6RVD3 1-541): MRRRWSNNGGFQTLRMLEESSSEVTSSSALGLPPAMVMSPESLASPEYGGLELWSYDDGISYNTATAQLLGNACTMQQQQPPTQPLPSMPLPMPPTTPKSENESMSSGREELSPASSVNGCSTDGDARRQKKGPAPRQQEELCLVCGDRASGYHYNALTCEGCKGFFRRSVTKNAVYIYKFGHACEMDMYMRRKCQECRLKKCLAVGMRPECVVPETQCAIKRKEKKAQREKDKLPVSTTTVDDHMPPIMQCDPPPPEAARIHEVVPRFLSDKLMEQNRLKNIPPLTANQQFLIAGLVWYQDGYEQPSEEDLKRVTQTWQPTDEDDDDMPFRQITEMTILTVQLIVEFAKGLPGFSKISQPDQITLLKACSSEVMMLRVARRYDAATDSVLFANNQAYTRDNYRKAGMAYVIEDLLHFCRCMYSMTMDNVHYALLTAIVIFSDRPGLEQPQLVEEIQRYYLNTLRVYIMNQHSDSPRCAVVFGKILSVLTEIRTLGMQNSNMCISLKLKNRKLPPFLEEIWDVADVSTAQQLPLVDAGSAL
T1 sequence (Q6IVK1 1-415 partner): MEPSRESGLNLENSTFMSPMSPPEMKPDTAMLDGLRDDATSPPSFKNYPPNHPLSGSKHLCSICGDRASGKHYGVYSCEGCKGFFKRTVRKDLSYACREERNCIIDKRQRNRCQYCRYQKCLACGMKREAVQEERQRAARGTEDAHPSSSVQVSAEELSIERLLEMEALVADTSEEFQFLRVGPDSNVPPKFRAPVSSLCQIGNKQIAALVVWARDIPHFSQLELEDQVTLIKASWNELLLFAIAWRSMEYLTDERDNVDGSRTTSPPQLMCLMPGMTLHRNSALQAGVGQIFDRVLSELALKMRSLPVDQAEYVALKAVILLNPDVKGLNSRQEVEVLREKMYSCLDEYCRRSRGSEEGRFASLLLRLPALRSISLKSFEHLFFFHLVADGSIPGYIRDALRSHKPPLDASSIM
Protocol: The cell line IAL-PID2, derived from imaginal wing discs of the lepidopteran Plodia interpunctella was obtained from H. Oberlander and maintained as described (Lynn, E. E. and Oberlander, H., (1983), J. Insect Physiology, 29, 591-96). A 300 ml stationary phase culture of P. interpunctella cells was centrifuged at 700×g for 10 mm at room temperature to pellet the cells. The supernatant was aspirated and the cellular pellet resuspended in 35 ml TMT (TM buffer with 0.1% Triton X-100). The suspension was homogenized with twenty up and down strokes of a Dounce homogenizer on ice. Homogenate was incubated on ice for 10 minutes and then centrifuged for 15 min at 900×g. The pellet was resuspenced in 15 ml TM buffer and centrifuged at 2,300×g. This pellet was extracted in TMK buffer (TM buffer with 800 mM KCl) by using a glass rod to crush the pellet until a gelatinous slurry was formed and incubated on ice for 15 minutes. The extract was centrifuged at 100,000×g in a swinging bucket rotor for 60 minutes. The supernatant, which constituted the nuclear extract, was desalted on a 10 DG desalting column (Bio-Rad, 732-2010) equilibrated with T-buffer. The total protein concentration in the nuclear extract was adjusted to 5 mg per ml with T-buffer containing 1 mM DTT.
^3H ponasterone A, a potent phytoecdysteroid, (66,000 dpm; specific activity 170 Ci/mmole; NEN Life Science Products, Boston, Mass.) was mixed with 100 μl Kc cytosolic or Plodia nuclear ecdysone receptor extracts in […] glass test tubes in the absence or presence of 10 μM unlabelled 20-hydroxyecdysone (20E) to obtain an estimate of total or non-specific respectively, binding of tritiated ponasterone A. The tubes were vortexed and incubated overnight at 4° C. for Kc cytosolic extracts or 1.5 hours for Plodia nuclear extracts for binding reactions to reach equilibrium. At the end of equilibrium binding times, the bound tritiated ponasterone A was separated from the unbound by addition of ice-cold 600 μl or 300 μl dextran-coated charcoal solution (500 mg of Sigma HCL-washed activated charcoal, 50 mg Pharmacia Dextran T70, 50 ml T-buffer) to Kc or Plodia extracts, respectively. The tubes were vortexed briefly and centrifuged at 7,000×g to pellet the charcoal. The supernatant, 600 μl or 300 μl for Kc or Plodia extract reactions, respectively, containing tritiated ponasterone A bound to proteins, was aspirated into liquid scintillation vials containing 5 ml scintillation cocktail (ReadySafe®, Beckmann) each The mixture was vortexed and the amount of total or non-specifically bound radioactivity measured in a Beckmann LS500 liquid scinitllation counter with a 60% counting efficiency for tritium.
as §1, with “compound. Specific binding of ^3H-ponasterone A was determined by subtracting non-specific binding (that obtained in the presence of 10 μM 20E) from total (no competitor) or competed radioactivity bound.” for “compound.”

Row | SMILES | Plodia log(1/IC50)
3 | COc1cccc(C(=O)NN(C(=O)c2cc(C)cc(C)c2)C(C)(C)C)c1C(C)C [Ligand 11] | 8.93
4 | CCOc1cccc(C(=O)NN(C(=O)c2cc(C)cc(C)c2)C(C)(C)C)c1C [Ligand 6] | 8.82
5 | COc1cccc(C(=O)NN(C(=O)c2cc(Cl)cc(Cl)c2)C(C)(C)C)c1C [Ligand 9] | 9.00
6 | CCc1c(C(=O)NN(C(=O)c2cc(C)cc(C)c2)C(C)(C)C)ccc2c1OCCO2 [Ligand 7] | 8.78
7 | CCc1c(OC)cccc1C(=O)NN(C(=O)c1cc(C)cc(Cl)c1)C(C)(C)C [Ligand 10] | 8.80
